For test [1], the system named is β-cell secretion. Put plainly: Part three: combined glucose+GLP-1 injection vs hyperglycemic clamp with L-arginine, maximal secretory capacity. In kind it is in vivo, human. The note with it: for Incremental C-peptide response (peak minus concentration at time of injection) / Incremental insulin response (peak minus concentration at time of injection): hyperglycemic clamp 30 mmol/l, 5 g L-arginine bolus at 45 min; for Absolute mean peak C-peptide concentration / Absolute mean peak insulin concentration: hyperglycemic clamp with 5 g L-arginine. The text has this: (§1) The present study was divided into three parts.
(§2) Part one: Six type II diabetic patients (four men and two women, mean (range), age: 56 years (48-67 years); BMI: 31.1 kg/m^2 (27-38 kg/m^2); HbA1c; 9.6% (7,0-12.5%) ) and 6 healthy subjects individually matched for sex, age and BMI (age: 56 years (51-70 years); BMI: 31.6 kg/m^2 (26-37 kg/M^2); HbA1c: 5.5% (5.2-5.8%)). […] Part three 8 type II diabetic patients (seven men and one woman, age: 55 years (49-69 years); BMI: 30.9 kg/m^2 (27-35 kg/M^2); HbA1c: 7.6% (6.3-8.6%)) and 8 healthy subjects (age: 55 years (51-64 years); BMI 31.1 kg/m^2 (25-38 kg/m^2); HbA1c: 5.4% (5.0-6.0%)) participated. Four patients were treated with diet alone while four were treated with diet and oral antidiabetics (sulphonylureas and/or biguanides). […] All type II diabetic patients were diagnosed according to the criteria of National Diabetes Data Group. […] All agreed to participate after oral and written information.
(§3) All oral antidiabetics were discontinued 72 hours before the study.
During the hyperglycemic clamp, glucose (50% w/v) was injected at time zero to increase the plasma glucose to 30 mmol/l (calculated as follows: (30 mmol/l−fasting plasma glucose)×35 mg glucose×weight in kilogram). Plasma glucose was kept at 30 mmol/l by continuous infusion of glucose, which was adjusted according to a bedside measurement of plasma glucose ever 5 minutes. At 45 minutes, 5 g L-arginine monohydrochloride was injected as a bolus during 30 seconds. Blood was sampled 15, 10 and 0 minutes before and 5, 10, 15, 20, 25, 30, 35, 40, 45, 47, 48, 49, 51, 53, 55, 60, 65, 70, 75 and 90 minutes after elevation of plasma glucose. The L-arginine was dissolved in 50 ml of sterilized water and dispensed into glass ampoules and stored at 4° C. until the day of the experiment. Blood was sampled into fluoride tubes for measurement of glucose and into chilled EDTA tubes with aprotinin (500 KIU/ml blood; Trasylol, Bayer, Leverkusen, Germany) for peptide analyses. Tubes were immediately cooled on ice and centrifuged within 20 minutes at 4° C., and plasma was stored at −20° C. until analysis.
(§4) Plasma glucose concentrations were measured during the experiments using a glucose oxidase method with a Glucose Analyzer (Yellow Springs Instrument Model 23 A, USA). Plasma insulin concentrations were measured according to Albano et al using standards of human insulin and antibody code no. 2004. The sensitivity of the assay is approximately 3 pmol/l, the intraassay coefficient of variation is 8% at 48 pmol/l. C-peptide concentrations were determined by radioimmunoassay (RIA) as described by Heding et al employing the polyclonal antibody M1230[12]. […] The detection limit is approximately 60 pmol/l, the intra-assay coefficient of variance is 5%, interassay coefficient of variation is 7.3%. […] The assay has a detection limit of 5 pmol/l. […] The detection limit is 1 pmol/l.

A further test deals with pancreas. The note with it: cited from earlier work.
The test system of test [2] is β-cell secretion. The experiment in a line: Part one: dose-response of I.V. bolus GLP-1 compared with glucagon test, peak plasma insulin and C-peptide. In kind it is in vivo, human. The note with it: glucagon test 1 mg I.V. bolus.
Text: as §1, §2, §3
(§5) Meal test: Venous blood was drawn 15, 10 and 0 min before and 15, 30, 45, 60, 75, 90, 120, 150 and 180 minutes after ingestion of a standard breakfast meal. […] The peptide was dissolved in sterilized water containing 2% human serum albumin (Albumin Nordisk, Novo Nordisk, Bagsvaerd, Denmark, guaranteed to be free of hepatitis-B surface antigen and human immunodeficiency virus antibodies) and subjected to sterile filtration. Appropriate amounts of peptide for each experimental subject were dispensed into glass ampoules and stored frozen under sterile conditions until the day of the experiment. Part two: β-cell function was examined on 3 different days. […] Fifteen minutes later plasma glucose was elevated to 15 mmol/l by intravenous glucose (50% w/v) administration as described above.
as §4

Test [3] deals with β-cell secretion. The experiment in a line: Part two: 2.5 nmol GLP-1, glucagon test, combined glucose+GLP-1 injection and s.c. GLP-1, peak plasma insulin and C-peptide. In kind it is in vivo, human. The note with it: glucagon test 1 mg I.V.
Text: as §1, §2, §3, §5, §4

The test system of test [4] is insulin secretion and blood glucose. The note with it: infusions in patients with type II diabetes; cited from earlier work.

Ends that are not written are not given here.

Consider `Cl.N=C(N)NCCC[C@H](N)C(=O)O` [L-arginine, L-arginine monohydrochloride], for which, in the test on β-cell secretion [1] (healthy subjects), the “Incremental C-peptide response (peak minus concentration at time of injection)” value is 3391 ± 388 pmol/L, the “Incremental insulin response (peak minus concentration at time of injection)” value was 1921 ± 338 pmol/L, the “Absolute mean peak C-peptide concentration” value came out at 6047 ± 652 pmol/L and the “Absolute mean peak insulin concentration” value came out at 2384 ± 452 pmol/L. Further, in the test with β-cell secretion [1] (type II diabetic patients), the “Incremental C-peptide response (peak minus concentration at time of injection)” value was 1360 ± 250 pmol/L, the “Incremental insulin response (peak minus concentration at time of injection)” value is 628 ± 226 pmol/L, the “Absolute mean peak C-peptide concentration” value was determined as 3043 ± 508 pmol/L and the “Absolute mean peak insulin concentration” value was found to be 816 ± 268 pmol/L.

As for “Glu Gly Thr Phe Thr Ser Asp Val Ser Ser Tyr Leu Glu Gly Gln Ala Ala Lys Glu Phe Ile Ala Trp Leu Val Lys Gly Arg (NH2) (EGTFTSDVSSYLEGQAAKEFIAWLVKGR-NH2; listed as Homo sapiens) [SEQ. ID NO:6]”, the “Stimulation of production or release of insulin from the pancreas” value in the test on pancreas was “do not stimulate”.

In the case of “Glu Gly Thr Phe Thr Ser Asp Val Ser Ser Tyr Leu Glu Gly Gln Ala Ala Lys Glu Phe Ile Ala Trp Leu Val Lys Gly Arg Gly (EGTFTSDVSSYLEGQAAKEFIAWLVKGRG; listed as Homo sapiens) [SEQ. ID NO:5]”, the “Stimulation of production or release of insulin from the pancreas” value with pancreas is recorded as “do not stimulate”.

For glucagon, the “Peak C-peptide concentration (mean ± SEM)” value in the test on β-cell secretion [2] (healthy controls) stood at 1874 ± 158 pmol/L; in the test with β-cell secretion [2] (type 2 diabetic patients), 1643 ± 178 pmol/L; with β-cell secretion [3] (healthy controls) it was 1995 ± 99 pmol/L; in the test on β-cell secretion [3] (type 2 diabetic patients), 1780 ± 160 pmol/L. In addition, the “Peak insulin concentration (mean ± SEM)” value in the test on β-cell secretion [2] (healthy controls) came to 360 ± 39 pmol/L; in the test with β-cell secretion [2] (type 2 diabetic patients), 265 ± 45 pmol/L; in the test with β-cell secretion [3] (healthy controls), 420 ± 61 pmol/L; in the test on β-cell secretion [3] (type 2 diabetic patients), 329 ± 50 pmol/L.

For the compound “glucose-dependent insulinotropic polypeptide [GIP]”, the “Effect on insulin secretion and blood glucose” value in test [4] is “little or no effect”.

The values are drawn from patent publication US6344180B1 (BioNebraska, Inc., priority 1999, dated 2002).
